Measurements taken from paper PMC9486168, “Protein-protein interaction-based high throughput screening for adenylyl cyclase 1 inhibitors: Design, implementation, and discovery of a novel chemotype” (Frontiers in Pharmacology, 2022).
Where “and” joins values, the source holds several entries; their conditions need not be identical. Identical values can stand only once. Like-named read-outs stand apart in the source and are kept apart here.

Tests used:
AC1 = target: T1, AC1 (Homo sapiens, UniProt Q08828); assay: cAMP accumulation assay, AC1-HEK Δ3/6 KO cells; assay type: cell-based
T1 construct: expressed in transfected cells
T1 sequence (Q08828 whole entry): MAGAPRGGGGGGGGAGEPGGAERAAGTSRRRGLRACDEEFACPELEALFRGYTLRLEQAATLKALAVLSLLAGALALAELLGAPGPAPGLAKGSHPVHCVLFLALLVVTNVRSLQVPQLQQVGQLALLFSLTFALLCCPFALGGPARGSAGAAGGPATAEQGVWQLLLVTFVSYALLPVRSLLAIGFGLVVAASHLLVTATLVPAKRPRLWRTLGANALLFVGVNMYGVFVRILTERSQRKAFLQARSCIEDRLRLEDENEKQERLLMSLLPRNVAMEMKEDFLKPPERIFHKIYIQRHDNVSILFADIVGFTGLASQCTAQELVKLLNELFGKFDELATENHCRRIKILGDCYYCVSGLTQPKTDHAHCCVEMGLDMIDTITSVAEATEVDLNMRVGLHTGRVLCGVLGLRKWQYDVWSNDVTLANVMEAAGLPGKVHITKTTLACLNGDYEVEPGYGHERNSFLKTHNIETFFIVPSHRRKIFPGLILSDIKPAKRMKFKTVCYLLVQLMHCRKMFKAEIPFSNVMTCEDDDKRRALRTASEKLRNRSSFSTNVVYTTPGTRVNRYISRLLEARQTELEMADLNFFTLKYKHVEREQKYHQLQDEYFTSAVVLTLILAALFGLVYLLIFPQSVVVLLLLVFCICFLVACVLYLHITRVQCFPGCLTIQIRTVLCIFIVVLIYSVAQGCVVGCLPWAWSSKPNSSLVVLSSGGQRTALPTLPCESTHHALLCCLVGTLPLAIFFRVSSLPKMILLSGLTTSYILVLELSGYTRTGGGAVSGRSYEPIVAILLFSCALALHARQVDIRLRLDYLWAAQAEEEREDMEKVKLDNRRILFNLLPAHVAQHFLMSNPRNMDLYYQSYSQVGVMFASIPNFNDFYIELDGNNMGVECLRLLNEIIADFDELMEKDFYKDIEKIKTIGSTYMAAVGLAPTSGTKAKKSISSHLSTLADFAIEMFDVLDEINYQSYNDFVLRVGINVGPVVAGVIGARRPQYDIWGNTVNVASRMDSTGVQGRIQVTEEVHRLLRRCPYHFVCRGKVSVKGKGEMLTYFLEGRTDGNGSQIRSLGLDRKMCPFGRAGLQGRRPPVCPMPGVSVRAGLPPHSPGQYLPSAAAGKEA
Method: Cells were then incubated for 1 h at 37°C and 5% CO2. Cells were then treated with varying concentrations of inhibitors for 30 min, followed by treatment with calcium ionophore A23187 (3 μM) in 500 μM 3-isobutyl-1-methylxanthine (IBMX), a phosphodiesterase inhibitor, for 1 h at RT (Sigma Aldrich, St. Louis, MO). Finally, Cisbio HTRF detection reagents were added and incubated for 1–24 h at RT. Plates were read according to manufacturer’s protocol on an HTRF-compatible plate reader at 620 and 665 nm cAMP concentrations were interpolated from a cAMP standard curve. […] For cytotoxicity assays, compounds were tested at 30 μM and this protocol was used with the exception of detection reagents; CellTiter-Glo 2.0 reagent was used according to manufacturer’s protocol and luminescence was read on the Synergy Neo2 plate reader. Data are normalized to cells treated with vehicle (100%) or 2% tween (0%) and are represented as the percent of vehicle, from the average of three independent experiments (N = 3).

AC8 = target: T2, AC8 (Homo sapiens, UniProt P40145); assay: cAMP accumulation assay, AC8-HEK Δ3/6 KO cells; assay type: cell-based; details: for IC50: CDI analog SAR set, 3 μM A23187, read-out: IC50 (μM) ± SEM AC8
T2 construct: expressed in transfected cells
T2 sequence (P40145 whole entry, species assumed): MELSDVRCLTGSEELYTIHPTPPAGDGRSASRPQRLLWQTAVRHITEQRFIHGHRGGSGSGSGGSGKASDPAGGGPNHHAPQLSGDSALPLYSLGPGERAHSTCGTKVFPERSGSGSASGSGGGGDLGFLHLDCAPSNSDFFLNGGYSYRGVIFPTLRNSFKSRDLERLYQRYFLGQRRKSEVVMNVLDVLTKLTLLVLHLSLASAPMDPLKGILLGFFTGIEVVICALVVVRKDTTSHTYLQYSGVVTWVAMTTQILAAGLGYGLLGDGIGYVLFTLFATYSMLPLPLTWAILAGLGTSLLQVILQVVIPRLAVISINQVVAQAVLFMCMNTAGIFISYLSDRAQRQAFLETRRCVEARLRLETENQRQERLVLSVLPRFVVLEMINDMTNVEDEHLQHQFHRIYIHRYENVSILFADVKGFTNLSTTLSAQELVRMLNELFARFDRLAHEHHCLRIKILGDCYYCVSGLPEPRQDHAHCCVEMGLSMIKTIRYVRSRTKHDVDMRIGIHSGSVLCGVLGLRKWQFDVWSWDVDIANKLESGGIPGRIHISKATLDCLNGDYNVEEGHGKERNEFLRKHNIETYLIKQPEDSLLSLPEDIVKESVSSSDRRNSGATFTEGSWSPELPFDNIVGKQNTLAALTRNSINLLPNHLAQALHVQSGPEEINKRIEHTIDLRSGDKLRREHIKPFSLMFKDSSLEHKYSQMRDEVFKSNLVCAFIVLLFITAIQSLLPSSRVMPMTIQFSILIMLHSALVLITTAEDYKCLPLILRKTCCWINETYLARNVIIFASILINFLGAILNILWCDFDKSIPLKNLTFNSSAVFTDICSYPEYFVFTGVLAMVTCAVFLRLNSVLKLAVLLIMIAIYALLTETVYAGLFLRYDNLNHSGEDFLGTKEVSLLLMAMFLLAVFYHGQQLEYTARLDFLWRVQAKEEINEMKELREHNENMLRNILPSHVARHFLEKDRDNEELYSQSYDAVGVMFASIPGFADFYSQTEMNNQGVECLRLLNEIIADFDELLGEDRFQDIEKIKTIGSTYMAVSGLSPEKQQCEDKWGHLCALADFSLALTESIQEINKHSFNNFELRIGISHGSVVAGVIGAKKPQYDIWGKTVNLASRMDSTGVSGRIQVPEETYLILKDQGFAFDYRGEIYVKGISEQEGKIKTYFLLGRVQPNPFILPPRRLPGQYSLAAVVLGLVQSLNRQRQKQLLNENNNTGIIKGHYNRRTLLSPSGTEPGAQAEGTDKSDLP
Method: (§1) Cryopreserved HEK293 cells with AC3 and AC6 knocked out, and stably expressing AC1, AC2, AC5, or AC8 (AC1-HEK Δ3/6 KO, AC2-HEK Δ3/6 KO, AC5-HEK Δ3/6 KO, or AC8-HEK Δ3/6 KO cells, respectively; [Soto-Velasquez et al., 2018]) were plated at 5,000 cells/well. Cells were then incubated for 1 h at 37°C and 5% CO2. Cells were then treated with varying concentrations of inhibitors for 30 min, followed by treatment with calcium ionophore A23187 (3 μM) in 500 μM 3-isobutyl-1-methylxanthine (IBMX), a phosphodiesterase inhibitor, for 1 h at RT (Sigma Aldrich, St. Louis, MO). Finally, Cisbio HTRF detection reagents were added and incubated for 1–24 h at RT. Plates were read according to manufacturer’s protocol on an HTRF-compatible plate reader at 620 and 665 nm cAMP concentrations were interpolated from a cAMP standard curve. […] For cytotoxicity assays, compounds were tested at 30 μM and this protocol was used with the exception of detection reagents; CellTiter-Glo 2.0 reagent was used according to manufacturer’s protocol and luminescence was read on the Synergy Neo2 plate reader. Data are normalized to cells treated with vehicle (100%) or 2% tween (0%) and are represented as the percent of vehicle, from the average of three independent experiments (N = 3).

[1] = Cytotoxicity assay (CellTiter-Glo 2.0) in AC1-HEK Δ3/6 KO cells; assay type: cell-based; details: human, percent of vehicle, read-out: % Viable Cells at AC1 30 μM
Method: as §1

AC8-Nt/CaM = target: T3, AC8-Nt/CaM (Homo sapiens, UniProt P0DP23); assay: AC8-Nt/CaM FP counterscreen assay; assay type: binding; details: for Ki ratio (AC8 NT/AC1): ratio >1: more potent in AC1/CaM FP;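 as to all read-outs here: fluorescence polarization of AC peptide binding GST-CaM in HEPES buffer with CaCl2, compound preincubated with CaM 30 min, peptide read after 2 h at room temperature in dark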
T3 construct: made in house; host or cells: E. coli BL21-CodonPlus (DE3)-RIPL

AC1-C1b/CaM = target: T4, AC1-C1b/CaM (Homo sapiens, UniProt P0DP23); assay: AC1-C1b/CaM fluorescence polarization (FP) assay; assay type: binding; details: for IC50: 100 nM AC1-C1b, 100 nM GST-CaM, 95% CI in brackets; for Ki: Cheng-Prusoff from FP IC50 and Kd; for AC1-CaM FP % inhib: relative to 100 μM CDZ (100% inhibition), highest concentration tested; for inhibition of AC1/CaM in the FP assay after fresh powder stocks were ordered: repurchased powder
T4 construct: made in house; host or cells: E. coli BL21-CodonPlus (DE3)-RIPL

AC8/CaM PPI = target: T5, AC8/CaM PPI (Homo sapiens, UniProt P0DP23); assay: AC8/CaM NanoBiT assay in HEK293T cells; assay type: cell-based, rat; details: for IC50: HEK293T, thapsigargin-stimulated, AUC, read-out: Nanobit: AC8-CaM IC50 (μM ± SEM)
T5 construct: confirmed as an AC1/AC8 non-selective hit against full-length AC1- and AC8-CaM in the NanoBiT assay; The hCaM residues 1–149, residues 1–1,248 of rat AC8 (rAC8); expressed in transfected cells; host or cells: HEK293T, transient transfection

AC1/CaM PPI = target: T6, AC1/CaM PPI (Homo sapiens, UniProt P0DP23); assay: AC1/CaM NanoBiT assay in HEK293T cells; assay type: cell-based; details: HEK293T, thapsigargin-stimulated, AUC; for IC50: read-out: Nanobit: AC1-CaM IC50 (μM ± SEM)
T6 construct: human AC1 (hAC1) residues 1–1,118 were cloned; The hCaM residues 1–149, residues 1–1,248 of rat AC8 (rAC8); expressed in transfected cells; host or cells: HEK293T, transient transfection

AC8-C2b/CaM = target: T7, AC8-C2b/CaM (Homo sapiens, UniProt P0DP23); assay: AC8-C2b/CaM FP counterscreen assay; assay type: binding; details: for Ki ratio (AC8-C2b/AC1): ratio >1: more potent in AC1/CaM FP;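 as to all read-outs here: fluorescence polarization of AC peptide binding to GST-CaM in HEPES buffer with KCl and 50 µM CaCl2, compound preincubated 30 min with GST-CaM, DMSO and calmidazolium as controls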
T7 construct: made in house; host or cells: E. coli BL21-CodonPlus (DE3)-RIPL

[2] = CellTiter-Glo 2.0 cell viability assay; assay type: cell-based; details: human, HEK293T cells, pH 7.4; at the compound's AC1/CaM NanoBiT IC50 concentration; read-out: % Viable Cells at AC1 IC50;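 also: luminescence read-out after 30 min compound exposure at 37 °C in HEPES-buffered HBSS, scaled to vehicle-treated cells as 100% and cell-free buffer wells as 0%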
[3] = CDI analog SAR set, 3 μM A23187, read-out: IC50 (μM) ± SEM AC1
[4] = Cheng-Prusoff from FP IC50 and Kd, n/i given where none

Compound	IC50 (AC1; [3])	IC50 (AC8)	viability at 30 min, 30 μM [1]	Ki ratio (AC8 NT/AC1) (AC8-Nt/CaM)	IC50 (AC1-C1b/CaM)	Ki (AC1-C1b/CaM)	Ki ratio (AC8-C2b/AC1) (AC8-C2b/CaM)	further results
Cc1cc(C(c2cccs2)N2CCOCC2)c(NC(=O)c2ccco2)s1 (stereo not shown) [Compound 30]	10.6 ± 2.72 µM	4.99 ± 1.1 µM	100%	–	–	–	–	–
CCc1cc(C(Nc2ccccn2)c2cccs2)c(NC(=O)c2ccco2)s1 (stereo not shown) [Compound 33]	3.58 ± 2.26 µM	2.7 ± 1.92 µM	88%	–	–	–	–	–
CNC(=O)C1=C(Nc2ccc(N(C)C)cc2)c2ccccc2S1(=O)=O [Compound 20]	–	–	–	0.58	43 µM	10.2 µM	0.44	IC50 (AC1; initial examination, 10,000 cells per well, 3 μM A23187, 1 h RT, read-out: AC1 IC50 ± SEM): 66.3 ± 33.3 µM; Ki (AC8-Nt/CaM; [4]): 5.9 µM; AC1-CaM FP % inhib (AC1-C1b/CaM): ~70%; IC50 (AC8/CaM PPI): 70.3 ± 1.13 µM; IC50 (AC1/CaM PPI): 63 ± 1.34 µM; Ki (AC8-C2b/CaM; [4]): 4.5 µM; viability at 30 min [2]: 100%
Clc1ccc(C(c2ccc(Cl)cc2)n2cc[n+](CC(OCc3ccc(Cl)cc3Cl)c3ccc(Cl)cc3Cl)c2)cc1 (stereo not shown) [CDZ, Calmidazolium]	–	–	–	–	15.1 µM and ~15 µM	–	–	IC90 (AC1-C1b/CaM): ~100 µM
CCC(C)CC(C)CCCCCCCCC(=O)NC1CC(O)C(NCCN)NC(=O)C2C(O)CCN2C(=O)C(C(O)CCN)NC(=O)C(C(O)C(O)c2ccc(O)cc2)NC(=O)C2CC(O)CN2C(=O)C(C(C)O)NC1=O (stereo not shown) [Compound 5, Caspofungin Acetate]	–	–	–	2 and 2.1	12.7 µM	3 µM	2 and 2.1	Ki (AC8-Nt/CaM; [4]): 6.3 µM; AC1-CaM FP % inhib (AC1-C1b/CaM): 20%; Ki (AC8-C2b/CaM; [4]): 6.2 µM
CN1CCC[C@H]1c1cccnc1.O=C(O)C(O)C(O)C(=O)O.O=C(O)C(O)C(O)C(=O)O [nicotine ditartrate]	–	–	–	–	–	–	–	inhibition of AC1/CaM in the FP assay after fresh powder stocks were ordered (AC1-C1b/CaM): did not exhibit significant inhibition
Cc1cc(C(c2cccs2)N2CCC(C)CC2)c(NC(=O)c2ccco2)s1 (stereo not shown) [Compound 23]	3.08 ± 0.25 µM	4.21 ± 1.01 µM	100%	–	–	–	–	–
CCN1CCN(C(c2cccs2)c2c(NC(=O)c3ccco3)sc3c2CCCC3)CC1 (stereo not shown) [Compound 28]	20 ± 5.23 µM	11.6 ± 1.82 µM	88%	–	–	–	–	fold more potent at AC8 than AC1 (AC8; cAMP accumulation IC50s): 2 fold
CCc1cc(C(c2ccccc2)N2CCN(C)CC2)c(NC(=O)c2ccco2)s1 (stereo not shown) [Compound 29]	10.3 ± 1.45 µM	14.4 ± 4.1 µM	65%	–	–	–	–	fold reduction in AC1 potency compared to 15 (AC1; matched molecular pair 15): ~2 fold; fold reduction in AC8 potency compared to 15 (AC8; matched molecular pair 15): ~3 fold
CCNC(=O)c1cc2c(=O)n(C)c(=O)n(C)c2s1 [Compound 16]	–	–	–	AC1 Selective	24.2 µM	5.7 µM	AC1 Selective	Ki (μM) AC8 NT (AC8-Nt/CaM; [4]): n/i; Nanobit: AC1-CaM IC50 (μM ± SEM) (AC1/CaM PPI): No Inhibition; Ki (μM) AC8 C2b (AC8-C2b/CaM; [4]): n/i
CC1=C(CCC(=O)O)c2cc3[nH]c(cc4nc(cc5[nH]c(cc1n2)c(C)c5C(C)O)C(C)=C4C(C)O)c(C)c3CCC(=O)O (stereo not shown) [Compound 6, Hematoporphyrin]	–	–	–	17.8	14.7 µM	3.5 µM	2.9	Ki (AC8-Nt/CaM; [4]): 61.7 µM; AC1-CaM FP % inhib (AC1-C1b/CaM): 131%; fold selective for AC8 over AC1 in the NanoBiT assay (AC8/CaM PPI; AC8/CaM vs AC1/CaM NanoBiT): 2- to 4 fold; IC50 (AC8/CaM PPI): 11.6 ± 1.24 µM; IC50 (AC1/CaM PPI): 38.4 ± 1.17 µM; Ki (AC8-C2b/CaM; [4]): 10.1 µM; viability at 30 min [2]: 95%
ethyl quinine	–	–	–	–	–	–	–	inhibition of AC1/CaM in the FP assay after fresh powder stocks were ordered (AC1-C1b/CaM): did not exhibit significant inhibition
